The CheMixHub viscosity set
Where “and” joins values, the source holds several entries; their conditions need not be identical. Identical values can stand only once.

Assay: xn = mol fraction of the nth substance listed

NCCO + O
Conditions | viscosity
293.15 K, 100 kPa, x2 = 0.46 | 21.2 mPa·s
293.15 K, 101 kPa, x1 = 0.03289 | 1.389 mPa·s
293.15 K, 101 kPa, x1 = 0.06899 | 1.903 mPa·s
293.15 K, 101 kPa, x1 = 0.069 | 1.88 mPa·s
293.15 K, 101 kPa, x1 = 0.0699 | 1.953 mPa·s
293.15 K, 101 kPa, x1 = 0.1124 | 3.125 mPa·s
293.15 K, 101 kPa, x1 = 0.1654 | 4.243 mPa·s
293.15 K, 101 kPa, x1 = 0.23 | 6.17 mPa·s
293.15 K, 101 kPa, x1 = 0.3043 | 9.893 mPa·s
293.15 K, 101 kPa, x1 = 0.47 | 16.6 mPa·s
293.15 K, 101 kPa, x1 = 0.6204 | 23.11 mPa·s
293.15 K, 101 kPa, x1 = 0.803 | 25.85 mPa·s
293.15 K, 101 kPa, x2 = 0.84 | 4.64 mPa·s
293.15 K, 101 kPa, x2 = 0.93 | 2.002 mPa·s
293.15 K, 101.3 kPa, x1 = 0.07 | 2.005 mPa·s
293.15 K, 101.3 kPa, x1 = 0.2 | 4.667 mPa·s and 7.345 mPa·s
293.15 K, 101.3 kPa, x1 = 0.3 | 11.29 mPa·s
293.15 K, 101.3 kPa, x1 = 0.4 | 15.77 mPa·s
293.15 K, 101.3 kPa, x1 = 0.5 | 21 mPa·s
293.15 K, 101.3 kPa, x1 = 0.7 | 24.02 mPa·s
298.14 K, 100 kPa, x1 = 0.112 | 2.464 mPa·s
298.15 K, 100 kPa, x1 = 0.069 | 1.621 mPa·s
298.15 K, 100 kPa, x1 = 0.11 | 2.415 mPa·s
298.15 K, 100 kPa, x1 = 0.112 | 2.467 mPa·s and 2.464 mPa·s
298.15 K, 101 kPa, x1 = 0.03289 | 1.224 mPa·s
298.15 K, 101 kPa, x1 = 0.06899 | 1.689 mPa·s
298.15 K, 101 kPa, x1 = 0.1121 | 2.44 mPa·s
298.15 K, 101 kPa, x1 = 0.1122 | 2.54 mPa·s
298.15 K, 101 kPa, x1 = 0.1124 | 2.714 mPa·s
298.15 K, 101 kPa, x1 = 0.1422 | 3.11 mPa·s
298.15 K, 101 kPa, x2 = 0.84 | 3.41 mPa·s and 3.76 mPa·s
298.15 K, 101 kPa, x2 = 0.8878 | 2.52 mPa·s
298.15 K, 101 kPa, x2 = 0.89 | 2.46 mPa·s
298.15 K, 101.3 kPa, x1 = 0.03 | 1.299 mPa·s
298.15 K, 101.3 kPa, x1 = 0.1 | 2.489 mPa·s
298.15 K, 101.3 kPa, x1 = 0.2 | 3.765 mPa·s and 5.547 mPa·s
298.15 K, 101.3 kPa, x1 = 0.3 | 9.062 mPa·s
298.15 K, 101.3 kPa, x1 = 0.4 | 12.6 mPa·s
298.15 K, 101.3 kPa, x1 = 0.5 | 16.29 mPa·s
298.15 K, 101.3 kPa, x1 = 0.7 | 19.9 mPa·s
303.15 K, 100 kPa, x1 = 0.1 | 1.91 mPa·s
303.15 K, 100 kPa, x1 = 0.2 | 3.87 mPa·s
303.15 K, 100 kPa, x1 = 0.3 | 6.67 mPa·s
303.15 K, 100 kPa, x1 = 0.4 | 9.68 mPa·s
303.15 K, 100 kPa, x1 = 0.5 | 12.3 mPa·s
303.15 K, 100 kPa, x1 = 0.6 | 14 mPa·s
303.15 K, 100 kPa, x2 = 0.46 | 13.1 mPa·s
303.15 K, 101 kPa, x1 = 0.03289 | 1.087 mPa·s
303.15 K, 101 kPa, x1 = 0.06899 | 1.482 mPa·s
303.15 K, 101 kPa, x1 = 0.0699 | 1.477 mPa·s and 1.177 mPa·s
303.15 K, 101 kPa, x1 = 0.1122 | 2.19 mPa·s
303.15 K, 101 kPa, x1 = 0.1124 | 2.397 mPa·s
303.15 K, 101 kPa, x1 = 0.1422 | 2.65 mPa·s
303.15 K, 101 kPa, x1 = 0.1654 | 3.059 mPa·s
303.15 K, 101 kPa, x1 = 0.3043 | 6.608 mPa·s
303.15 K, 101 kPa, x1 = 0.6204 | 13.65 mPa·s
303.15 K, 101 kPa, x1 = 0.803 | 15.72 mPa·s
303.15 K, 101 kPa, x2 = 0.84 | 3.27 mPa·s
303.15 K, 101 kPa, x2 = 0.93 | 1.496 mPa·s
303.15 K, 101.3 kPa, x1 = 0.03 | 1.121 mPa·s
303.15 K, 101.3 kPa, x1 = 0.07 | 1.501 mPa·s
303.15 K, 101.3 kPa, x1 = 0.1 | 2.195 mPa·s
303.15 K, 101.3 kPa, x1 = 0.2 | 3.279 mPa·s and 4.96 mPa·s
303.15 K, 101.3 kPa, x1 = 0.3 | 7.417 mPa·s
303.15 K, 101.3 kPa, x1 = 0.4 | 10.31 mPa·s
303.15 K, 101.3 kPa, x1 = 0.5 | 13.15 mPa·s
308.15 K, 101 kPa, x1 = 0.03289 | 0.973 mPa·s
308.15 K, 101 kPa, x1 = 0.06899 | 1.31 mPa·s
308.15 K, 101 kPa, x1 = 0.1124 | 2.143 mPa·s
313 K, 101 kPa, x1 = 0.11 | 1.57 mPa·s
313.15 K, 100 kPa, x1 = 0.1 | 1.48 mPa·s
313.15 K, 100 kPa, x2 = 0.46 | 8.59 mPa·s
313.15 K, 101 kPa, x1 = 0.03289 | 0.878 mPa·s
313.15 K, 101 kPa, x1 = 0.11 | 1.66 mPa·s
313.15 K, 101 kPa, x1 = 0.1124 | 1.95 mPa·s
313.15 K, 101 kPa, x1 = 0.1422 | 1.99 mPa·s
313.15 K, 101 kPa, x1 = 0.3043 | 4.654 mPa·s
313.15 K, 101 kPa, x1 = 0.803 | 10.54 mPa·s
313.15 K, 101 kPa, x2 = 0.84 | 2.3 mPa·s
313.15 K, 101 kPa, x2 = 0.93 | 1.163 mPa·s
313.15 K, 101.3 kPa, x1 = 0.03 | 0.909 mPa·s
313.15 K, 101.3 kPa, x1 = 0.2 | 3.423 mPa·s
313.15 K, 101.3 kPa, x1 = 0.3 | 5.291 mPa·s
313.15 K, 101.3 kPa, x1 = 0.4 | 7.024 mPa·s
313.15 K, 101.3 kPa, x1 = 0.5 | 8.95 mPa·s
318.15 K, 101 kPa, x1 = 0.03289 | 0.798 mPa·s
318.15 K, 101 kPa, x1 = 0.06899 | 1.048 mPa·s
323 K, 101 kPa, x1 = 0.11 | 1.22 mPa·s
323.15 K, 100 kPa, x2 = 0.46 | 5.92 mPa·s
323.15 K, 101 kPa, x1 = 0.03289 | 0.731 mPa·s
323.15 K, 101 kPa, x1 = 0.06899 | 0.948 mPa·s
323.15 K, 101 kPa, x1 = 0.069 | 0.94 mPa·s
323.15 K, 101 kPa, x1 = 0.0699 | 0.973 mPa·s
323.15 K, 101 kPa, x1 = 0.1654 | 1.76 mPa·s
323.15 K, 101 kPa, x1 = 0.23 | 2.57 mPa·s
323.15 K, 101 kPa, x1 = 0.3043 | 3.401 mPa·s
323.15 K, 101 kPa, x1 = 0.47 | 5.37 mPa·s
323.15 K, 101 kPa, x1 = 0.6204 | 6.592 mPa·s
323.15 K, 101 kPa, x1 = 0.803 | 7.219 mPa·s
323.15 K, 101 kPa, x2 = 0.84 | 1.78 mPa·s
323.15 K, 101 kPa, x2 = 0.89 | 1.23 mPa·s
323.15 K, 101 kPa, x2 = 0.93 | 0.942 mPa·s
323.15 K, 101.3 kPa, x1 = 0.03 | 0.715 mPa·s
323.15 K, 101.3 kPa, x1 = 0.07 | 0.945 mPa·s
323.15 K, 101.3 kPa, x1 = 0.1 | 1.338 mPa·s
323.15 K, 101.3 kPa, x1 = 0.2 | 1.782 mPa·s and 2.566 mPa·s
323.15 K, 101.3 kPa, x1 = 0.3 | 3.771 mPa·s
323.15 K, 101.3 kPa, x1 = 0.4 | 5.055 mPa·s
323.15 K, 101.3 kPa, x1 = 0.5 | 6.273 mPa·s
323.15 K, 101.3 kPa, x1 = 0.7 | 7.09 mPa·s
